Assay results published in ChEMBL document CHEMBL5096167, “Recent advances in development of hetero-bivalent kinase inhibitors” (Eur J Med Chem, 2021).
Blank lines part the entries; values can stand above or below the molecule they belong to. *1 amine or outer side, *2 acyl side, *3 side chain or, on linkers, in order; H or OH if unused. Where a SMILES comes first, the peptide text is derived from it. The star is where a group is joined. X1 = Brc1c(Br)c(Br)c2[nH]c(NCCCN*)nc2c1Br; Suc = O=C(CCC(=O)[*:2])[*:1]

Tests used:
[1] = molecular target: cAMP-dependent protein kinase catalytic subunit beta (Homo sapiens, UniProt P22694); test: Binding affinity to human wild-type PKAc beta assessed as dissociation constant
[2] = Binding affinity to human PKAc beta-S54L mutant assessed as dissociation constant
[3] = molecular target: Proto-oncogene tyrosine-protein kinase Src (Homo sapiens, UniProt P12931); test: Inhibition of c-Src (unknown origin)
Proto-oncogene tyrosine-protein kinase Src, sequence (P12931 2-536 limits assumed): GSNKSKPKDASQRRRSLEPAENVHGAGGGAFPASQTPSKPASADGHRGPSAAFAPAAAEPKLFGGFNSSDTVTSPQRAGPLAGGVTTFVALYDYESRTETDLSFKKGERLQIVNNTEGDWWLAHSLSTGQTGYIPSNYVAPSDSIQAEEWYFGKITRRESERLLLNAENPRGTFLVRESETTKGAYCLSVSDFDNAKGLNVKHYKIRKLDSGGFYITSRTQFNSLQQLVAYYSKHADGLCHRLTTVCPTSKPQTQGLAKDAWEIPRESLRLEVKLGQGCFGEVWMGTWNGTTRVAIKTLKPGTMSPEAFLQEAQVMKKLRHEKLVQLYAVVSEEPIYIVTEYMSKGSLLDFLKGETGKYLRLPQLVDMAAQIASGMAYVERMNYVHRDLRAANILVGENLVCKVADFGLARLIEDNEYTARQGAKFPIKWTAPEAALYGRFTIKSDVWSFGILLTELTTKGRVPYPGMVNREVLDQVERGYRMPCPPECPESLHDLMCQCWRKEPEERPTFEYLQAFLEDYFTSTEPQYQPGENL

[4] = Inhibition of CK2alpha2beta2 (unknown origin); set-up: species or system Homo sapiens
[5] = molecular target: Mitogen-activated protein kinase 1 (Homo sapiens, UniProt P28482)
Mitogen-activated protein kinase 1, sequence (P28482 whole entry): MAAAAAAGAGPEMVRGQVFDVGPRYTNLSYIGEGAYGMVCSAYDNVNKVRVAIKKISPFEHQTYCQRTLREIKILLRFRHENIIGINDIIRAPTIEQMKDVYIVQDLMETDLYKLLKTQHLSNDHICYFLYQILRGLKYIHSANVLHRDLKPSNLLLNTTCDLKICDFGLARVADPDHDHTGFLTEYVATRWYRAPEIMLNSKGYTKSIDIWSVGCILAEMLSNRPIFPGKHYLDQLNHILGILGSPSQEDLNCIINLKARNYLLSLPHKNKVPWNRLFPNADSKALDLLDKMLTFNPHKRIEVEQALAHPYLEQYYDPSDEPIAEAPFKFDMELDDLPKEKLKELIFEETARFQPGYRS

[6] = molecular target: cAMP-dependent protein kinase (PKA) (Homo sapiens, UniProt P22694+P17612+P22612)
[7] = molecular target: T1, Ephrin type-A receptor 3 (Homo sapiens, UniProt P29320); test: Inhibition of EPHA3 (unknown origin) assessed as dissociation constant by ELISA-like binding assay
T1 sequence (P29320 whole entry): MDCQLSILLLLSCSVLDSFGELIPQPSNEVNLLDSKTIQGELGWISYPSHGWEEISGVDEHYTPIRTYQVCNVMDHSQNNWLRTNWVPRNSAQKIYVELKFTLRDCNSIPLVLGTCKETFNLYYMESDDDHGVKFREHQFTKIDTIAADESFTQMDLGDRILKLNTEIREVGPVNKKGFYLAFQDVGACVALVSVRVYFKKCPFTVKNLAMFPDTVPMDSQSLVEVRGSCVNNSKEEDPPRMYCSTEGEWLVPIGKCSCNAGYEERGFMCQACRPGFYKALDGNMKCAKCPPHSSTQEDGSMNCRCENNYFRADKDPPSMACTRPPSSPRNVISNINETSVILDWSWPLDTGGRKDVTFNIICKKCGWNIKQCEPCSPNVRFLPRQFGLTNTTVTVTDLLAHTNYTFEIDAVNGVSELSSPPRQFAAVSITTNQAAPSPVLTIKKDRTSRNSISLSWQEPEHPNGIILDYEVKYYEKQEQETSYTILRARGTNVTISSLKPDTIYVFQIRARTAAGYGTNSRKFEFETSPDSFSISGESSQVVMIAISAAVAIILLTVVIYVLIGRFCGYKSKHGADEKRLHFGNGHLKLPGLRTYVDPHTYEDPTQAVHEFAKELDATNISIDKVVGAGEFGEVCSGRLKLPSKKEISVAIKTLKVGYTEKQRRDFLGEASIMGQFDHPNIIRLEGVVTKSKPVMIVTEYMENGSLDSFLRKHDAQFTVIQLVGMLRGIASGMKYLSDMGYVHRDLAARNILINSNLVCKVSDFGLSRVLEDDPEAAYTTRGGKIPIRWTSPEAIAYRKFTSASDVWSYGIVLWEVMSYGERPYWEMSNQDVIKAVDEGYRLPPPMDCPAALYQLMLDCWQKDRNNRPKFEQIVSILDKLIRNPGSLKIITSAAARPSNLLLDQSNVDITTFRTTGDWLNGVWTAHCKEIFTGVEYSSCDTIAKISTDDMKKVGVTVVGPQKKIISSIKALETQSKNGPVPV

[8] = molecular target: cAMP-dependent protein kinase catalytic subunit alpha (Homo sapiens, UniProt P17612); test: Displacement of mAb(D38C6)-BTN from human recombinant PKAc alpha incubated for 15 mins by microplate reader assay
[9] = molecular target: Casein kinase 2 (Homo sapiens, UniProt P67870+P68400+P19784+Q8NEV1); test: Inhibition of human CK2; assay type: protein assay

Compound: N=C(N)NCCCC(NC(=O)CCCCCNC(=O)C(Cc1c[nH]c2ccccc12)NC(=O)CCCCCNC(=O)c1ccc(-c2ccnc(N)n2)[se]1)C(=O)NC(CCCNC(=N)N)C(=O)NC(CCCNC(=N)N)C(=O)NC(CCCNC(=N)N)C(=O)NC(CCCNC(=N)N)C(=O)NC(CCCNC(=N)N)C(=O)NC(CCCCN)C(N)=O (stereo unspecified)
- Kd [1]: 0.013 nM
- Kd [2]: 0.019 nM

Compound: COC(=O)CC[C@H](NC(=O)CCC(=O)NCCCNc1nc2c(Br)c(Br)c(Br)c(Br)c2[nH]1)C(=O)N[C@@H](CCC(=O)OC)C(=O)N[C@@H](CCC(=O)OC)C(=O)N[C@@H](CCC(=O)OC)C(=O)OC ({X1-Suc}-E(OMe)E(OMe)E(OMe)E(OMe)-OMe)
- IC50 [4]: 10000 nM

Compound: CO[C@@H]1[C@H](N(C)C(=O)CCC(=O)NCCCOCCOCCOCCCNC(=O)COCC(=O)N[C@H]2CSSC[C@@H](C(=O)NCC(N)=O)NC(=O)NC(=O)[C@H](Cc3ccccc3)NC(=O)[C@H](C(C)C)NC(=O)[C@H](CCCNC(=N)N)NC(=O)[C@H](Cc3ccccc3)NC(=O)[C@H]([C@@H](C)O)NC2=O)C[C@H]2O[C@]1(C)n1c3ccccc3c3c4c(c5c6ccccc6n2c5c31)C(=O)NC4
- IC50 [6]: 2.6 nM

Compound: CC(C)(C)n1nc(-c2ccc(Cl)cc2)c2c(N)ncnc21
- Kd [7]: 200000 nM

Compound: CC[C@H](C)[C@H](NC(=O)[C@H](CCC(=O)O)NC(=O)[C@H](CCC(=O)O)NC(=O)[C@H](Cc1ccc(P(=O)(O)O)cc1)NC(=O)[C@H](CCC(=O)O)NC(=O)COCC(=O)NCCOCCOCCOCCOCCOCCOCCOCCOCCn1cc(CCC(=O)N2CCN(c3cc(Nc4cc(C5CC5)[nH]n4)nc(C)n3)CC2)nn1)C(N)=O
- IC50 [3]: 160 nM

Second part, the molecule after the results:

- IC50 [3]: 2900 nM
Compound: C#CCCC(=O)N1CCN(c2cc(Nc3cc(C4CC4)[nH]n3)nc(C)n2)CC1

- IC50 [5]: 1200 nM
Compound: C#CCCCCNC(=O)CCCCCn1nc(N)c2cc(-c3c(-c4ccccc4)nn4ccccc34)nnc21

- IC50 [6]: 159 nM
Compound: CO[C@@H]1[C@H](N(C)C(=O)CCC(=O)O)C[C@H]2O[C@]1(C)n1c3ccccc3c3c4c(c5c6ccccc6n2c5c31)C(=O)NC4

- Kd [8]: 0.042 nM
Compound: C[C@@H](NC(=O)CCCCCNC(=O)c1ccc(-c2ccnc(N)n2)[se]1)C(=O)N[C@H](CCCNC(=N)N)C(=O)N[C@H](CCCNC(=N)N)C(=O)N[C@H](CCCNC(=N)N)C(=O)N[C@H](CCCNC(=N)N)C(=O)N[C@H](CCCNC(=N)N)C(=O)N[C@H](CCCNC(=N)N)C(=O)N[C@H](CCCCN(C)c1ccc2c(-c3ccc(C(=O)[O-])cc3C(=O)O)c3ccc(=[N+](C)C)cc-3oc2c1)C(N)=O

- IC50 [9]: 8000 nM
Compound: O=C(O)Cc1c(Br)c(Br)c(Br)c2[nH]nnc12
